Results reported in patent publication US20250360122A1, “USE OF NAMPT INHIBITORS IN THE MANUFACTURE OF MEDICAMENTS FOR PREVENTING AND/OR TREATING PIGMENTED VILLONODULAR SYNOVITIS” (WEST CHINA HOSPITAL, SICHUAN UNIVERSITY, priority 2024, published 2025).

Tests used:
Assay type in all cases: in vivo, female NOD-SCID mice
JUND [1] = assay: Immunohistochemistry of JUND in PVNS-PDX mice; settings: FK866 30 mg/kg i.p. twice daily, four consecutive days weekly, two weeks, compared to the PDX group
Excerpt: (§1) A PVNS-human-derived tissue xenograft (PDX) tumor model was established using female NOD-SCID gnotobiotic mice aged 5 to 6 weeks. The human-derived tissue was sourced from the tumor tissue of patients with a confirmed diagnosis of PVNS who underwent surgery. During the surgery, viable synovial tissue was collected and then transplanted to construct the PVNS-PDX tumor model. The mice were purchased from Vital River Laboratory Animal Technology Co., Ltd. (Beijing, China) and were housed in micro-isolator cages under specific pathogen-free conditions. Tumor grafts were prepared using sterile SmartFlow (Airtech, China). After removing the necrotic tissue, the tumor tissue was rinsed three times with physiological saline. Subsequently, the tumor mass was segmented into small pieces (diameter ranging from 1.0 to 3.0 mm) using a surgical blade. The tumor tissue (graft) was suspended in serum-free Dulbecco's Modified Eagle Medium and then cryopreserved for implantation. The surgery was carried out by using an anesthesia machine. […] Tumor size was measured under a microscope and calculated using the formula […], where L is the length and W is the width.
The synovial tissue was fixed in 10% neutral buffered formalin for two days, followed by dehydration with a series of graded ethanol. […] The integrated optical density values of positive staining were evaluated using ImageJ software.

PVNS grafts [2] = assay: PVNS-PDX tumor model, tumor growth / final tumor size; settings: PVNS-PDX mice, 14 days of FK866 treatment, 30 mg/kg i.p.
Excerpt: as §1, with “machine. Mice were anesthetized with 2.5% isoflurane and kept in a lateral position. The skin was sterilely prepared using surgical-grade povidone-iodine, and a small dorsal midline incision (approximately 20.0 mm) was made in the kidney area.” for “machine.”

JUND [3] = assay: Western blot of JUND in synovium of PVNS-PDX mice; settings: FK866 30 mg/kg i.p. twice daily, four consecutive days weekly, two weeks, compared to the PDX group
Excerpt: as §1, with “saline.” for “saline. Subsequently, the tumor mass was segmented into small pieces (diameter ranging from 1.0 to 3.0 mm) using a surgical blade. The tumor tissue (graft) was suspended in serum-free Dulbecco's Modified Eagle Medium and then cryopreserved for implantation. The surgery was carried out by using an anesthesia machine.”
Synovial tissue lysates were prepared using RIPA buffer supplemented with PMSF, incubated on ice, and physically sheared for 25 min. The proteins were extracted, and their concentration was measured using the BCA protein assay kit (Beyotime, P0011). […] Band intensity was quantified using ImageJ software version 1.39 V. The primary antibodies used were: anti-NAMPT (1:1000, ABclonal, A0256); anti-ITGA5 (1:1000, ABclonal, A19069); anti-JUND (1:1000, ABclonal, A5496); and anti-β-actin (1:1000, ABclonal, AC006).

PVNS grafts [4] = assay: Vascular permeability assay (Evans blue) in PVNS grafts; settings: PVNS-PDX mice, after 14 days of FK866 30 mg/kg i.p.; mean±S.E.M.; p<0.001 vs. PDX group (14.93±2.003)
Excerpt: as §1
[…] The concentration of Evans blue in the tissue extract was measured using a microplate reader at a wavelength of 630 nm and a standard curve of Evans blue concentration. […]

fibrinogen (FGB) = assay: Immunofluorescence staining of FGB and CD31 in PVNS-PDX mice; settings: FK866 30 mg/kg i.p., in contrast to the PDX group
Excerpt: as §1
The frozen tissue sections were thawed at room temperature for 1 hour. […] The tissue sections were observed using a fluorescence microscope, and the fluorescence intensity was assessed using ImageJ. […]

For O=C(/C=C/c1cccnc1)NCCCCC1CCN(C(=O)c2ccccc2)CC1 [FK866], the “JUND expression (IHC staining)” value (JUND [1]) was “notable reduction”, the Tumor growth (PVNS grafts [2]) was “significantly inhibited” and the “JUND expression (WB analysis)” value (JUND [3]) was “significant decrease”. The “Evan's blue dye concentration in PVNS grafts (vascular leakage)” value (PVNS grafts [4]) was 4.040±1.618 ng Evan's blue dye/mg tissue and the “FGB deposition around the blood vessels (immunofluorescence)” value (fibrinogen (FGB)) was “significantly reduced”.
